Experimental data as given in ChEMBL document CHEMBL4177594, “Design, synthesis, and evaluation of salicyladimine derivatives as multitarget-directed ligands against Alzheimer's disease” (Bioorg Med Chem, 2017).

How the values were obtained:
[1] = Metal chelating activity assessed as compound-Cu2+ complex formation after 30 mins by UV-Vis spectrophotometry based Job's plot
PC-12 [2] = assay: Neuroprotective activity against H2O2-induced apoptosis in rat PC12 cells assessed as apoptotic cells at 6.25 uM after 24 hrs by Annexin V/FITC/propidium iodide staining-based flow cytometry (reference value: 52.3%); assay type: functional
PC-12 [3] = assay: Neuroprotective activity against H2O2-induced apoptosis in rat PC12 cells assessed as apoptotic cells at 25 uM after 24 hrs by Annexin V/FITC/propidium iodide staining-based flow cytometry (reference value: 52.3%); assay type: functional
PC-12 [4] = assay: Neuroprotective activity against H2O2-induced apoptosis in rat PC12 cells assessed as apoptotic cells at 50 uM after 24 hrs by Annexin V/FITC/propidium iodide staining-based flow cytometry (reference value: 52.3%); assay type: functional
PC-12 [5] = assay: Neuroprotective activity against 6-OHDA-induced toxicity in rat PC12 cells assessed as increase in cell viability at 10 to 25 uM pretreated for 24 hrs followed by 6-OHDA challenge measured after 24 hrs by MTT assay; assay type: functional
PC-12 [6] = assay: Neuroprotective activity against H2O2-induced apoptosis in rat PC12 cells assessed as viable cells level at 6.25 uM after 24 hrs by Annexin V/FITC/propidium iodide staining-based flow cytometry (reference value: 96.2%); assay type: functional
PC-12 [7] = assay: Neuroprotective activity against H2O2-induced apoptosis in rat PC12 cells assessed as early apoptosis cells level at 6.25 uM after 24 hrs by Annexin V/FITC/propidium iodide staining-based flow cytometry (reference value: 1.8%); assay type: functional
PC-12 [8] = assay: Neuroprotective activity against H2O2-induced apoptosis in rat PC12 cells assessed as necrosis cells level at 6.25 uM after 24 hrs by Annexin V/FITC/propidium iodide staining-based flow cytometry (reference value: 0.1%); assay type: functional
PC-12 [9] = assay: Neuroprotective activity against H2O2-induced apoptosis in rat PC12 cells assessed as viable cells level at 12.5 uM after 24 hrs by Annexin V/FITC/propidium iodide staining-based flow cytometry (reference value: 96.2%); assay type: functional
PC-12 [10] = assay: Neuroprotective activity against H2O2-induced apoptosis in rat PC12 cells assessed as late apoptosis cells level at 12.5 uM after 24 hrs by Annexin V/FITC/propidium iodide staining-based flow cytometry (reference value: 1.9%); assay type: functional
PC-12 [11] = assay: Neuroprotective activity against H2O2-induced apoptosis in rat PC12 cells assessed as viable cells level at 50 uM after 24 hrs by Annexin V/FITC/propidium iodide staining-based flow cytometry (reference value: 96.2%); assay type: functional

Work on `Oc1ccc(/C=N/c2ccc(OCc3ccccc3)cc2)c(O)c1O` yielded a log K [1] of 8.01, an Activity (PC-12 [2]) of 38.6% and an Activity (PC-12 [3]) of 11.2%. For the same compound, the Activity (PC-12 [4]) was 6.1%, the Activity (PC-12 [5]) was 65.9 - 75.4% and the Activity (PC-12 [6]) was 60.6%. For the same compound, the Activity (PC-12 [7]) was 26.7%, the Activity (PC-12 [8]) was 0.8% and the Activity (PC-12 [9]) was 69.8%. It also gave an Activity (PC-12 [10]) of 4.2% and an Activity (PC-12 [11]) of 91.1%.
